In US20260207718A1, “METHODS FOR TREATING LATE ONSET POMPE DISEASE IN PEDIATRIC PATIENTS” (Amicus Therapeutics, Inc., priority 2022, published 2026):
Read-outs that look alike come from different tables or passages of the source.

Experiments:
[1] = ATB200-04 trial: population PK exposure matching of adolescents to adults; format: in vivo, human; conditions: for AUC(0-t) / Cmax: human, plasma
Source text: The ATB200-04 trial seeks to evaluate the safety and tolerability of cipaglucosidase alfa/miglustat co-administration.
Subjects have scheduled PK assessments at Day 1, Week 26, and Week 52 for plasma total GAA protein and miglustat.
Population PK parameters include clearance (CL) and volume of distribution (V), estimated from total GAA protein concentrations and miglustat concentrations in plasma.
Methods for Exposure Matching. Pediatric PK data from both clinical trials and expanded access programs were used for exposure matching to adult PK data. […] The previous base population PK models from cipaglucosidase alfa-atga and miglustat were rerun with the updated dataset. To account for longitudinal changes in body size for pediatric patients, the time-varying body weight was used to estimate the effects of body size on PK parameters in the population PK models. The effect of age at baseline on clearance was also evaluated in the PK models. Individual AUC0-24 and Cmax of cipaglucosidase alfa and miglustat were predicted from the PK empirical Bayes estimates (EBEs). The time-varying body weight and baseline age in pediatrics were used in the exposure prediction. PK exposures (AUC0-24 and Cmax) were predicted for each PK visit during the study; Day 1-baseline, Week 26, and Week 52. Additionally, there were unscheduled PK visits for some subjects.
Results for Adolescent Subjects. […] The dose may have been adjusted at a later visit for exposure matching. It should be noted however, that in the early stage of the study, all subjects were started at 20 mg/kg to evaluate safety.

[2] = tested on: pediatric subjects with late-onset Pompe disease; assay: ATB200-04 trial: safety in pediatric subjects with LOPD; format: in vivo, human; conditions: ERT-experienced subject, Cohort 2

AUC(0-t) ([1]; oral, miglustat, predicted, Adults N=100, read-out: AUC0-24, Geo Mean): 20400 ng·h/mL
AUC(0-t) ([1]; oral, miglustat, predicted, Adults N=100, read-out: AUC0-24, Mean): 20700 ng·h/mL
AUC(0-t) ([1]; oral, miglustat, predicted, Adults N=100, read-out: AUC0-24, Median): 20700 ng·h/mL
AUC(0-t) ([1]; oral, miglustat, predicted, Adults N=100, read-out: AUC0-24, P5): 15200 ng·h/mL
AUC(0-t) ([1]; oral, miglustat, predicted, Adults N=100, read-out: AUC0-24, P95): 28300 ng·h/mL
Cmax ([1]; oral, miglustat, predicted, Adults N=100, read-out: Cmax, Geo Mean): 2370 ng/mL
Cmax ([1]; oral, miglustat, predicted, Adults N=100, read-out: Cmax, Mean): 2420 ng/mL
Cmax ([1]; oral, miglustat, predicted, Adults N=100, read-out: Cmax, Median): 2370 ng/mL
Cmax ([1]; oral, miglustat, predicted, Adults N=100, read-out: Cmax, P5): 1720 ng/mL
Cmax ([1]; oral, miglustat, predicted, Adults N=100, read-out: Cmax, P95): 3280 ng/mL
AUC(0-t) ([1]; po, 195 mg, adolescent Subject 5, 195 mg, Week 52, 43.7 kg, read-out: individual predicted AUC0-24): 21000 ng·h/mL
Cmax ([1]; po, 195 mg, adolescent Subject 5, 195 mg, Week 52, 43.7 kg, read-out: individual predicted Cmax): 2330 ng/mL
AUC(0-t) ([1]; po, 195 mg, adolescent Subject 6, 195 mg, Week 52, 36.5 kg, read-out: individual predicted AUC0-24): 13500 ng·h/mL
Cmax ([1]; po, 195 mg, adolescent Subject 6, 195 mg, Week 52, 36.5 kg, read-out: individual predicted Cmax): 1700 ng/mL
AUC(0-t) ([1]; po, 260 mg, adolescent Subject 1, 260 mg, Week 52, 77.9 kg, read-out: individual predicted AUC0-24): 20400 ng·h/mL
Cmax ([1]; po, 260 mg, adolescent Subject 1, 260 mg, Week 52, 77.9 kg, read-out: individual predicted Cmax): 2960 ng/mL
AUC(0-t) ([1]; po, 260 mg, adolescent Subject 2, 260 mg, Week 52, 83.8 kg, read-out: individual predicted AUC0-24): 17100 ng·h/mL
Cmax ([1]; po, 260 mg, adolescent Subject 2, 260 mg, Week 52, 83.8 kg, read-out: individual predicted Cmax): 1910 ng/mL
AUC(0-t) ([1]; po, 260 mg, adolescent Subject 3, 260 mg, Week 52, 64.6 kg, read-out: individual predicted AUC0-24): 20300 ng·h/mL
Cmax ([1]; po, 260 mg, adolescent Subject 3, 260 mg, Week 52, 64.6 kg, read-out: individual predicted Cmax): 2170 ng/mL
AUC(0-t) ([1]; po, 260 mg, adolescent Subject 4, 260 mg, Week 64, 53.3 kg, read-out: individual predicted AUC0-24): 22300 ng·h/mL
Cmax ([1]; po, 260 mg, adolescent Subject 4, 260 mg, Week 64, 53.3 kg, read-out: individual predicted Cmax): 2590 ng/mL
AUC(0-t) ([1]; po, 260 mg, adolescent Subject 7, 260 mg, Week 52, 60.3 kg, read-out: individual predicted AUC0-24): 15000 ng·h/mL
Cmax ([1]; po, 260 mg, adolescent Subject 7, 260 mg, Week 52, 60.3 kg, read-out: individual predicted Cmax): 1850 ng/mL
AUC(0-t) ([1]; po, 260 mg, adolescent Subject 8, 260 mg, Week 72, 38.5 kg, read-out: individual predicted AUC0-24): 19600 ng·h/mL
Cmax ([1]; po, 260 mg, adolescent Subject 8, 260 mg, Week 72, 38.5 kg, read-out: individual predicted Cmax): 1800 ng/mL
AUC(0-t) ([1]; po, miglustat, predicted, Adolescents N=8, read-out: AUC0-24, Geo Mean): 18400 ng·h/mL
AUC(0-t) ([1]; po, miglustat, predicted, Adolescents N=8, read-out: AUC0-24, Mean): 18700 ng·h/mL
AUC(0-t) ([1]; po, miglustat, predicted, Adolescents N=8, read-out: AUC0-24, Median): 20000 ng·h/mL
AUC(0-t) ([1]; po, miglustat, predicted, Adolescents N=8, read-out: AUC0-24, P5): 14100 ng·h/mL
AUC(0-t) ([1]; po, miglustat, predicted, Adolescents N=8, read-out: AUC0-24, P95): 21800 ng·h/mL
Cmax ([1]; po, miglustat, predicted, Adolescents N=8, read-out: Cmax, Geo Mean): 2130 ng/mL
Cmax ([1]; po, miglustat, predicted, Adolescents N=8, read-out: Cmax, Mean): 2160 ng/mL
Cmax ([1]; po, miglustat, predicted, Adolescents N=8, read-out: Cmax, Median): 2040 ng/mL
Cmax ([1]; po, miglustat, predicted, Adolescents N=8, read-out: Cmax, P5): 1740 ng/mL
Cmax ([1]; po, miglustat, predicted, Adolescents N=8, read-out: Cmax, P95): 2830 ng/mL
Cmax, geometric LSM Ratio adolescents to adults ([1]; miglustat, 90% CI (79.51, 101.54)): 89.85
AUC0-24, geometric LSM Ratio adolescents to adults ([1]; miglustat, 90% CI (80.58, 101.21)): 90.31
SMILES: CCCCN1C[C@H](O)[C@@H](O)[C@H](O)[C@H]1CO [miglustat, (2R,3R,4R,5S)-1-butyl-2-(hydroxymethyl) piperidine-3,4,5-triol]
predicted AUC0-24 and Cmax for adolescents relative to adult 5th and 95th percentile range ([1]; adults N=100, adolescents N=8): for most adolescents are within the adult 5th and 95th percentile range
investigator-assessed relatedness of anaphylaxis event (both episodes) [2]: unrelated
